Results from ChEMBL document CHEMBL1641551, “Glycosylated nordihydroguaiaretic acids as anti-cancer agents” (Bioorg Med Chem Lett, 2011).
pIC50: −log10 of the molar value. Active and inactive are the calls of the source. No cut-off for these calls is given here.

Assays:
HT-29 = assay: Cytotoxicity against human HT-29 cells after 3 days by MTT assay; assay type: functional, cell-based
MCF7 = assay: Cytotoxicity against human MCF7 cells after 3 days by MTT assay; assay type: functional, cell-based
NCI/ADR-RES = assay: Cytotoxicity against human NCI/ADR-RES cells after 3 days by MTT assay; assay type: functional, cell-based
[1] = Cytotoxicity against human Hep3B cells after 3 days by MTT assay; assay type: functional, cell-based, Hep 3B2; details: 72 h
LNCaP = assay: Cytotoxicity against human LNCAP cells after 3 days by MTT assay; assay type: functional, cell-based; details: 72 h

Row | SMILES | Activity (HT-29) | Activity (MCF7) | Activity (NCI/ADR-RES) | pIC50 [1] | pIC50 (LNCaP) | pIC50 (HT-29; HT-29, 72 h) | pIC50 (MCF7; MCF7, 72 h) | pIC50 (NCI/ADR-RES; 72 h)
1 | C[C@H](Cc1ccc(OCc2cn(CCO)nn2)c(OCc2cn(CCO)nn2)c1)[C@@H](C)Cc1ccc(OCc2cn(CCO)nn2)c(OCc2cn(CCO)nn2)c1 | inactive | inactive | inactive |  |  |  |  | 
2 | C[C@H](Cc1ccc(OCc2cn(CCO[C@@H]3O[C@H](CO)[C@H](O)[C@H](O)[C@H]3O)nn2)c(OCc2cn(CCO[C@@H]3O[C@H](CO)[C@H](O)[C@H](O)[C@H]3O)nn2)c1)[C@@H](C)Cc1ccc(OCc2cn(CCO[C@@H]3O[C@H](CO)[C@H](O)[C@H](O)[C@H]3O)nn2)c(OCc2cn(CCO[C@@H]3O[C@H](CO)[C@H](O)[C@H](O)[C@H]3O)nn2)c1 | inactive | inactive | inactive |  |  |  |  | 
3 | C[C@H](Cc1ccc(OCc2cn(CCCCCCO[C@@H]3O[C@H](CO)[C@H](O)[C@H](O)[C@H]3O)nn2)c(OCc2cn(CCCCCCO[C@@H]3O[C@H](CO)[C@H](O)[C@H](O)[C@H]3O)nn2)c1)[C@@H](C)Cc1ccc(OCc2cn(CCCCCCO[C@@H]3O[C@H](CO)[C@H](O)[C@H](O)[C@H]3O)nn2)c(OCc2cn(CCCCCCO[C@@H]3O[C@H](CO)[C@H](O)[C@H](O)[C@H]3O)nn2)c1 | inactive | inactive | inactive | 4.06 |  |  |  | 
4 | COc1ccc(C[C@@H](C)[C@@H](C)Cc2ccc(OC)c(OC)c2)cc1OC [TERAMEPROCOL] |  |  |  | ≥ 5.00 | ≥ 5.00 | ≥ 5.00 | ≥ 5.00 | ≥ 5.00
5 | C[C@H](Cc1ccc(OCc2cn(CCCCCCO)nn2)c(OCc2cn(CCCCCCO)nn2)c1)[C@@H](C)Cc1ccc(OCc2cn(CCCCCCO)nn2)c(OCc2cn(CCCCCCO)nn2)c1 | inactive | inactive | inactive |  |  |  |  | 
6 | C[C@H](Cc1ccc(OCc2cn(CCCCCCO[C@@H]3O[C@H](CO)[C@@H](O)[C@H](O)[C@H]3O)nn2)c(OCc2cn(CCCCCCO[C@@H]3O[C@H](CO)[C@@H](O)[C@H](O)[C@H]3O)nn2)c1)[C@@H](C)Cc1ccc(OCc2cn(CCCCCCO[C@@H]3O[C@H](CO)[C@@H](O)[C@H](O)[C@H]3O)nn2)c(OCc2cn(CCCCCCO[C@@H]3O[C@H](CO)[C@@H](O)[C@H](O)[C@H]3O)nn2)c1 | inactive | inactive | inactive | 4.08 |  |  |  | 
